Results as given in patent US20240041042A1, “1-(PYRIDYL)-5-AZINYLPYRAZOLE DERIVATIVES, AND THEIR USE FOR CONTROL OF UNDESIRED PLANT GROWTH” (Bayer Aktiengesellschaft, priority 2020, published 2024).

Tests used:
Format in all cases: in vivo
[1] = tested on: Polygonum convolvulus (POLCO); assay: Pre-emergence herbicidal action against POLCO
In short: (§1)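 Herbicide applied to soil before seedling emergence, at 600 l/ha spray volume with 0.5% additive and rates up to 320 g/ha. Evaluation: visual percentage effect, about 3 weeks later, greenhouse-grown pots compared with untreated ones.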

[2] = tested on: Setaria viridis (SETVI); assay: Pre-emergence herbicidal action against SETVI; conditions: dosage 320 g/ha
In short: as §1

[3] = tested on: Verconica persica (VERPE); assay: Pre-emergence herbicidal action against VERPE; conditions: dosage 320 g/ha
In short: as §1

[4] = tested on: Viola tricolor (VIOTR); assay: Pre-emergence herbicidal action against VIOTR
In short: as §1

[5] = tested on: Lolium rigidum (LOLRI); assay: Post-emergence herbicidal action against LOLRI; conditions: dosage 320 g/ha
In short: (§2)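 Values are percent visual activity (0% like control, 100% plants dead) after about 3 weeks in the greenhouse. Treatment: post-emergence spray at one-leaf stage, 600 l/ha spray volume, 0.5% additive, doses 320 g/ha or lower.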

[6] = tested on: Echinochloa crus-galli (ECHCG); assay: Pre-emergence herbicidal action against ECHCG
In short: as §1

[7] = tested on: Echinochloa crus-galli (ECHCG); assay: Post-emergence herbicidal action against ECHCG
In short: as §2

[8] = tested on: Avena fatua (AVEFA); assay: Post-emergence herbicidal action against AVEFA; conditions: 320 g/ha, visual rating about 3 weeks after treatment
In short: as §2

[9] = tested on: Abutilon theophrasti (ABUTH); assay: Pre-emergence herbicidal action against ABUTH; conditions: Dosage column 320 g/ha (title prints 3200 g/ha); scored visually after about 3 weeks; 100% = plants have died
In short: as §1

[10] = tested on: Pharbitis purpurea (PHBPU); assay: Pre-emergence herbicidal action against PHBPU
In short: as §1

[11] = tested on: Alopecurus myosuroides (ALOMY); assay: Post-emergence herbicidal action against ALOMY; conditions: visual rating about 3 weeks after treatment vs untreated controls (100% = plants have died, 0% = like control plants)
In short: as §2

[12] = tested on: Matricaria inodora (MATIN); assay: Pre-emergence herbicidal action against MATIN
In short: as §1

[13] = tested on: Pharbitis purpurea (PHBPU); assay: Post-emergence herbicidal action against PHBPU
In short: as §2

[14] = tested on: Alopecurus myosuroides (ALOMY); assay: Pre-emergence herbicidal action against ALOMY; conditions: scored visually after about 3 weeks, 100% = plants have died
In short: as §1

[15] = tested on: Abutilon theophrasti (ABUTH); assay: Post-emergence herbicidal action against ABUTH; conditions: visual rating about 3 weeks after treatment vs untreated controls (100% = plants have died, 0% = like control plants)
In short: as §2

[16] = tested on: Zea mays (ZEAMX); conditions: crop plant compatibility, 80 g/ha, effect vs untreated controls
In short: (§3)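 Visual rating (% effect vs. untreated plants; 100% = plant death) made about 3 weeks after treatment. Plants had been sprayed at one-leaf stage, 2–3 weeks post-sowing, with aqueous WP/EC preparations containing 0.5% additive, 600 l/ha water volume; a, b, c mark dose levels.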

[17] = tested on: Oryza sativa (ORYSA); conditions: crop plant compatibility, 80 g/ha, effect in comparison to untreated controls
In short: as §3

[18] = tested on: Setaria viridis (SETVI); assay: Post-emergence herbicidal action against SETVI; conditions: dosage 320 g/ha
In short: as §2

[19] = tested on: Amaranthus retroflexus (AMARE); assay: Pre-emergence herbicidal action against AMARE; conditions: visual scoring after about 3 weeks vs untreated controls
In short: as §1

[20] = tested on: Avena fatua (AVEFA); assay: Pre-emergence herbicidal action against AVEFA; conditions: visual scoring after about 3 weeks vs untreated controls
In short: as §1

[21] = tested on: Amaranthus retroflexus (AMARE); assay: Post-emergence herbicidal action against AMARE
In short: as §2

[22] = tested on: Zea mays (ZEAMX); conditions: pre-emergence, 80 g/ha, crop plant compatibility, in comparison to untreated controls
In short: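 Scoring: visual, % of untreated control, about 3 weeks after a pre-emergence application to the soil surface. Application used WP or EC formulations diluted in water with 0.5% additive at 600 l/ha; dosage levels are marked by suffixes a, b and c.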

[23] = tested on: Viola tricolor (VIOTR); assay: Post-emergence herbicidal action against VIOTR; conditions: 320 g/ha
In short: as §2

[24] = tested on: Lolium rigidum (LOLRI); assay: Pre-emergence herbicidal action against LOLRI; conditions: dosage 320 g/ha
In short: as §1

[25] = tested on: Verconica persica (VERPE); assay: Post-emergence herbicidal action against VERPE
In short: as §2

[26] = tested on: Polygonum convolvulus (POLCO); assay: Post-emergence herbicidal action against POLCO
In short: as §2

[27] = 80 g/ha, visual rating about 3 weeks after treatment vs untreated controls (100% = plants have died, 0% = like control plants)
[28] = 320 g/ha, visual rating about 3 weeks after treatment

| Structure (SMILES) | Pre-emergence action against POLCO in % ([1]; dosage 320 g/ha) [%] | Pre-emergence action against SETVI in % [2] [%] | Pre-emergence action against VERPE in % [3] [%] | Pre-emergence action against VIOTR in % ([4]; 320 g/ha, Viola tricolor) [%] | Pre-emergence action against VIOTR in % ([4]; dosage 80 g/ha) [%] | Post-emergence action against LOLRI in % [5] [%] | Pre-emergence action against ECHCG in % ([6]; dosage 320 g/ha) [%] | Post-emergence action against ECHCG in % ([7]; dosage 80 g/ha) [%] | Post-emergence action against ECHCG in % ([7]; dosage 320 g/ha) [%] | Post-emergence action against AVEFA in % [8] [%] | Pre-emergence action against ABUTH [9] [%] | Pre-emergence action against PHBPU in % ([10]; dosage 320 g/ha) [%] | Post-emergence action against ALOMY in % ([11]; 80 g/ha) [%] | Post-emergence action against ALOMY in % ([11]; 320 g/ha) [%] | Pre-emergence action against MATIN in % ([12]; dosage 80 g/ha) [%] | Pre-emergence action against MATIN in % ([12]; dosage 320 g/ha) [%] | Post-emergence action against PHBPU in % ([13]; dosage 80 g/ha) [%] | Post-emergence action against PHBPU in % ([13]; dosage 320 g/ha) [%] | Pre-emergence action against ALOMY ([14]; 320 g/ha) [%] | Post-emergence action against ABUTH in % ([15]; 80 g/ha) [%] | further results |
| --- | --- | --- | --- | --- | --- | --- | --- | --- | --- | --- | --- | --- | --- | --- | --- | --- | --- | --- | --- | --- | --- |
| CCOC(=O)COc1nn(-c2nc(F)ccc2F)c(-c2ccc(F)nc2)c1Br [Example I-330] | 90 | 100 | 90 | 100 | 90 | 90 | 100 | 80 | 90 | 80 | 100 | 90 | 80 | 90 | 80 | 90 | 80 | 90 | 100 | 80 | Post-emergence action against ABUTH in % ([15]; 320 g/ha): 80%; Post-emergence action against ZEAMX in % [16]: 10%; Post-emergence action against ORYSA in % [17]: 10%; Post-emergence action against SETVI in % [18]: 80%; Pre-emergence action against AMARE in % ([19]; 320 g/ha): 100%; Pre-emergence action against AVEFA in % ([20]; 80 g/ha): 80%; Pre-emergence action against AVEFA in % ([20]; 320 g/ha): 90%; Post-emergence action against AMARE in % [21, 27]: 80%; Post-emergence action against AMARE in % [21, 28]: 80%; Pre-emergence action against ZEAMX in % [22]: 20%; Post-emergence action against VIOTR in % [23]: 80%; Pre-emergence action against LOLRI in % [24]: 90%; Post-emergence action against VERPE in % ([25]; 320 g/ha, VERPE): 80%; Post-emergence action against VERPE in % ([25]; dosage 80 g/ha): 80% |
| CCOC(=O)COc1nn(-c2nc(F)ccc2F)c(-c2ccc(F)nc2)c1Cl [Example I-315] | 90 | 100 | 100 | 100 | 90 | 90 | 100 | 90 | 100 | 80 | 80 | 90 | 80 | 90 | 80 | 90 | 80 | 80 | 100 | 80 | Pre-emergence action against POLCO in % ([1]; dosage 80 g/ha): 80%; Pre-emergence action against ECHCG in % ([6]; dosage 80 g/ha): 90%; Pre-emergence action against PHBPU in % ([10]; dosage 80 g/ha): 90%; Pre-emergence action against ALOMY ([14]; 80 g/ha): 100%; Post-emergence action against ABUTH in % ([15]; 320 g/ha): 80%; Post-emergence action against ZEAMX in % [16]: 20%; Post-emergence action against ORYSA in % [17]: 20%; Post-emergence action against SETVI in % [18]: 80%; Post-emergence action against POLCO in % ([26]; dosage 80 g/ha): 80%; Post-emergence action against POLCO in % ([26]; dosage 320 g/ha): 80%; Pre-emergence action against AMARE in % ([19]; 80 g/ha): 90%; Pre-emergence action against AMARE in % ([19]; 320 g/ha): 90%; Pre-emergence action against AVEFA in % ([20]; 320 g/ha): 90%; Post-emergence action against AMARE in % [21, 27]: 80%; Post-emergence action against AMARE in % [21, 28]: 80%; Pre-emergence action against ZEAMX in % [22]: 10%; Post-emergence action against VIOTR in % [23]: 80%; Pre-emergence action against LOLRI in % [24]: 100%; Post-emergence action against VERPE in % ([25]; 320 g/ha, VERPE): 90%; Post-emergence action against VERPE in % ([25]; dosage 80 g/ha): 80% |
